Measured values published in patent publication US20250275541A1, “NEMATOSTATIC COMPOSITIONS, AND USE THEREOF IN AGRICULTURE” (AGRO INNOVATION INTERNATIONAL, priority 2019, published 2025).

Legend:
Meloidogyne javanica [1] = experiment: Mobility of Meloidogyne javanica in the soil microcosm (Example 1)
Procedure: The nematodes will be distributed randomly in the layer of soil, depending on their mobility. After adding the test products and incubating for 6 h, the column of soil and the sieve were placed in a tube containing water. The mobile nematodes pass through the column of soil and migrate naturally into the water. The nematodes passing into the water can be counted. If the concentration of test product considered is inhibitory for the mobility of the nematodes in the presence of soil, the nematodes are kept in the column of soil and delayed in their migration into the water. The time for emergence of the nematodes from the column of soil is longer as the concentration of nematostatic product increases.

Meloidogyne javanica [2] = experiment: Mobility of Meloidogyne javanica in the soil microcosm, different carboxylic acids (Example 3); conditions: Fluopyram 24 ppm (positive control), 5 h incubation
Procedure: Juvenile nematodes of M. javanica were deposited on the surface of a column of sterile soil 2 cm thick resting on a sieve (cotton wool), 1 hour before adding the test products in order to allow them time to move in the porosity of the soil. The nematodes will be distributed randomly in the layer of soil, depending on their mobility. […] The mobile nematodes pass through the column of soil and migrate naturally into the water. The nematodes passing into the water can be counted.
If the concentration of test product considered is inhibitory for the mobility of the nematodes in the presence of soil, the nematodes are kept in the column of soil and delayed in their migration into the water. The time for emergence of the nematodes from the column of soil is longer as the concentration of nematostatic product increases.
The method is identical to that described in Example 1. […]

[3] = calcium formate 780 ppm alone, or with RD2 100 or 1000 ppm, 6 h incubation, kinetics over 144 h

Structure (SMILES): O=C[O-].O=C[O-].[Ca+2] [calcium formate]
- nematodes that left the microcosm at 3 days (Meloidogyne javanica [1]; at 3 days, calcium formate 780 ppm alone, or calcium formate 780 ppm + RD2 1000 ppm): 92%
- nematodes affected reversibly in their mobility (Meloidogyne javanica [1]; [3]): 62%
- nematodes not affected in their mobility (Meloidogyne javanica [1]; [3]): 14%
- nematodes affected irreversibly at 6 days (Meloidogyne javanica [1]; calcium formate 780 ppm alone, or with RD2 100 or 1000 ppm, at 6 days): 24%

Structure (SMILES): O=C(NCCc1ncc(C(F)(F)F)cc1Cl)c1ccccc1C(F)(F)F [Fluopyram]
- nematodes that had left the microcosm of the soil after 160 hours (Meloidogyne javanica [2]): no nematode had left the microcosm
